In the NIST ThermoML archive (doi:10.1021/acs.jced.5b00251):

Test: refractive index (other wavelength) (dimensionless); xn = mol fraction of the nth substance listed
Conditions: 101 kPa, Liquid, Standard Abbe refractometry

CC(C)Cc1ccccc1 [(2-methylpropyl)benzene] + CCCCCCCCCCCC
refractive index
Conditions	x1 = 0.1014	x1 = 0.2024	x1 = 0.3032	x1 = 0.4036	x1 = 0.5038	x1 = 0.6036	x1 = 0.7032	x1 = 0.8024	x1 = 0.9014
293.15 K, Wavelength=436.1 nm	1.43714	1.44344	1.45015	1.45682	1.46405	1.47144	1.47917	1.48711	1.49556
293.15 K, Wavelength=513.9 nm	1.4307	1.4365	1.44273	1.44889	1.45559	1.46247	1.46959	1.47693	1.48487
293.15 K, Wavelength=589.3 nm	1.42708	1.4326	1.43856	1.44443	1.45083	1.45746	1.46421	1.47122	1.47869
293.15 K, Wavelength=633.2 nm	1.42554	1.43094	1.4368	1.44255	1.44884	1.45524	1.46196	1.46884	1.47617
293.15 K, Wavelength=657.2 nm	1.42541	1.43084	1.43659	1.44269	1.44849	1.45427	1.46085	1.46776	1.47491
298.15 K, Wavelength=436.1 nm	1.43491	1.44124	1.44775	1.45454	1.46153	1.46903	1.47676	1.48462	1.49284
298.15 K, Wavelength=513.9 nm	1.42851	1.43425	1.44037	1.44665	1.45312	1.46005	1.46722	1.4745	1.48229
298.15 K, Wavelength=589.3 nm	1.4249	1.43032	1.43623	1.44221	1.44841	1.45504	1.46188	1.46882	1.47611
298.15 K, Wavelength=633.2 nm	1.42337	1.42885	1.43449	1.44035	1.44642	1.45293	1.45965	1.46646	1.47371
298.15 K, Wavelength=657.2 nm	1.42267	1.42867	1.43417	1.44009	1.44578	1.45198	1.45863	1.46548	1.47249
303.15 K, Wavelength=436.1 nm	1.43262	1.43872	1.44552	1.45204	1.45929	1.4666	1.47424	1.48209	1.49024
303.15 K, Wavelength=513.9 nm	1.42624	1.43187	1.43818	1.44421	1.45077	1.45769	1.46477	1.47203	1.47981
303.15 K, Wavelength=589.3 nm	1.42267	1.42804	1.43406	1.43981	1.44611	1.45269	1.45946	1.46639	1.47362
303.15 K, Wavelength=633.2 nm	1.42115	1.42643	1.43232	1.43796	1.44427	1.45059	1.45721	1.46405	1.47135
303.15 K, Wavelength=657.2 nm	1.42052	1.42618	1.4321	1.43801	1.44358	1.44965	1.45625	1.46299	1.47001
